Results as given in ChEMBL document CHEMBL5360583, “Benzo[j]fluoranthene-Derived Natural Products” (J Nat Prod, 2023).
pIC50: −log10 of the molar value. ≈ marks a conversion by molar mass, not a printed value. Values belong to the compound of their own block, whether it stands above or below them.

Tests used:
[1] = Inhibition of IL-2 production in CD28-stimulated human Jurkat E6.1 cells; type: functional, cell-based
[2] = Inhibition of tyrosine kinase (unknown origin); design: species or system Homo sapiens
[3] = system: RAW264.7; experiment: Anti-inflammatory activity in mouse RAW264.7 cells assessed as inhibition of NO production; type: functional, cell-based
[4] = system: Bacillus subtilis; experiment: Antibacterial activity against Bacillus subtilis assessed as zone of inhibition by disc diffusion method; type: functional
[5] = system: Caenorhabditis elegans; experiment: Nematicidal activity against Caenorhabditis elegans; type: functional; conditions: read-out: LD50 (the source's name)
[6] = system: Yarrowia lipolytica; experiment: Antifungal activity against Yarrowia lipolytica assessed as zone of inhibition; type: functional
[7] = target: Hyaluronan-binding protein 2 (Homo sapiens, UniProt Q14520); experiment: Inhibition of spermidine-induced human pro-PHBP autoactivation
Chain of Hyaluronan-binding protein 2 (Q14520 24-313 limits assumed): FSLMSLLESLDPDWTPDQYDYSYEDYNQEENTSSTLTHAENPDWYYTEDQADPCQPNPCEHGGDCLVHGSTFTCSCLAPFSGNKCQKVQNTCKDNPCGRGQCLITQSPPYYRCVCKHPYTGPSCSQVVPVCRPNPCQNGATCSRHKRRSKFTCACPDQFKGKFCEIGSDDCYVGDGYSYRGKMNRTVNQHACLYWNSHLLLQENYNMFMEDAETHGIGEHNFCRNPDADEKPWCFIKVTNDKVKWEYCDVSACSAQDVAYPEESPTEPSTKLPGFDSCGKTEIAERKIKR
Chain of Hyaluronan-binding protein 2 (Q14520 314-560 limits assumed): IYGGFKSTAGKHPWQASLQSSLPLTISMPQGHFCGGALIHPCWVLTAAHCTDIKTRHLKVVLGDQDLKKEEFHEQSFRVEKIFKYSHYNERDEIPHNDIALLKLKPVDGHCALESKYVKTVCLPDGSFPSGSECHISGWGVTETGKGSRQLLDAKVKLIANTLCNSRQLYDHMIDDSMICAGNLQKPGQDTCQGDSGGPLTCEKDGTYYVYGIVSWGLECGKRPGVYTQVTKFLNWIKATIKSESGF

[8] = Antioxidant activity assessed as DPPH radical scavenging activity at 50 uM; type: functional
[9] = system: Enterococcus faecalis; experiment: Antibacterial activity against Enterococcus faecalis assessed as zone of inhibition; type: functional
[10] = system: Micrococcus luteus; experiment: Antibacterial activity against Micrococcus luteus assessed as bacterial growth inhibition; type: functional
[11] = system: L929; experiment: Cytotoxicity against mouse L929 cells assessed as reduction in cell viability by MTT assay; type: functional, cell-based
[12] = system: Jurkat; experiment: Antiproliferative activity against human Jurkat cells assessed as reduction in cell viability measured after 24 hrs by MTT assay; type: functional, cell-based
[13] = system: Ramos; experiment: Antiproliferative activity against human Ramos cells assessed as reduction in cell viability measured after 24 hrs by MTT assay; type: functional, cell-based
[14] = system: L929; experiment: Cytotoxicity against mouse L929 cells assessed as reduction in cell viability; type: functional, cell-based
[15] = system: Staphylococcus aureus; experiment: Antibacterial activity against Staphylococcus aureus assessed as zone of inhibition; type: functional
[16] = system: SW480; experiment: Cytotoxicity against human SW480 cells assessed as reduction in cell growth by MTT assay; type: functional, cell-based
[17] = system: Micrococcus luteus; experiment: Antibacterial activity against Micrococcus luteus assessed as reduction in bacterial growth; type: functional
[18] = system: Splenocyte; experiment: Immunosuppressive activity in BALB/c mouse splenocyte assessed as reduction in ConA-induced mouse T-lymphocytes proliferation incubated for 48 hrs by MTT assay; type: functional, cell-based
[19] = Cytotoxicity against BALB/c mouse Splenocyte assessed as reduction in cell viability incubated for 48 hrs by MTT assay; type: toxicity, cell-based; conditions: splenocytes
[20] = system: Mucor hiemalis; experiment: Antifungal activity against Mucor hiemalis assessed as inhibition of fungal growth measured after 18 to 48 hrs by microbroth dilution assay; type: functional; conditions: time 18-48 hrs

pIC50 [1]: < 5.30 | pIC50 [2]: < 5.30
SMILES: COC1C(O)c2c(O)cccc2C2=C3CCC(=O)c4c(O)ccc(c43)C21 (centres undefined)

pIC50 [3]: 4.84
SMILES: CO[C@H]1C[C@H](O)C2=C3c4cccc(O)c4C(=O)[C@@H](O)[C@@H]3C3=CC=C(O)C1C32 (some centres undefined)

SMILES: O=C1c2c3c(cc(O)c2[C@H](O)[C@@H]2O[C@H]12)C1C=CC(O)=C2C(O)=CC=C3C21 (some centres undefined)
inhibition zone (IZ) [4]: 11 mm | LC50 [5]: 50 µg/mL (≈ 143 µM) | inhibition zone (IZ) [6]: 8 mm

pIC50 [7]: 4.85
SMILES: O=C1C(O)=c2c(c3ccc(=O)c4c(O)ccc2c4-3)-c2cccc(O)c21

SMILES: O=C1C[C@H]2C(=C3c4c2ccc(O)c4[C@@H](O)C[C@H]3O)c2cccc(O)c21
Activity [8]: 1.74%

SMILES: O=C1C[C@@H]2[C@H]3CC[C@@H](O)c4c(O)ccc(c43)[C@]2(O)c2cccc(O)c21
inhibition zone (IZ) [9]: 10 mm | inhibition zone (IZ) [4]: 10 mm

pIC50 [1]: 5.60 | pIC50 [2]: 6.12
SMILES: CO[C@@H]1[C@H](OC)c2c(O)cccc2C2=C3CCC(=O)c4c(O)ccc(c43)[C@H]21

MIC [10]: 8.3 µg/mL (≈ 26.4 µM)
SMILES: COc1cccc2c3c(ccc12)-c1ccc(O)c2c(O)ccc-3c12

SMILES: O=C1C[C@H](O)[C@H]2c3c(ccc(O)c31)-c1cc(O)c3c(O)cccc3c12
pIC50 [11]: 5.96

pIC50 [12]: 4.85 | pIC50 [13]: 5.18
SMILES: O=C1C[C@]2(O)C(=C3C=CC(=O)c4c(O)ccc2c43)c2cccc(O)c21

SMILES: O=C1C(O)=c2c(c3cc(O)c(=O)c4c(O)ccc2c4-3)-c2cccc(O)c21
pIC50 [14]: 5.15

SMILES: O=C1C[C@@H]2[C@H]3CCC(=O)c4c(O)ccc(c43)[C@]2(O)c2cccc(O)c21
inhibition zone (IZ) [4]: 11 mm | inhibition zone (IZ) [15]: 12 mm

SMILES: O=C1C[C@@H]2[C@@H]3CCC(=O)c4c(O)ccc(c43)[C@]2(O)c2cccc(O)c21
inhibition zone (IZ) [4]: 10 mm | LC50 [5]: 25 µg/mL (≈ 74.3 µM) | inhibition zone (IZ) [6]: 7 mm

MIC [10]: 16.7 µg/mL (≈ 55.6 µM)
SMILES: Oc1cccc2c3c(ccc12)-c1ccc(O)c2c(O)ccc-3c12

pIC50 [3]: 4.68
SMILES: CO[C@H]1C[C@H](O)C2=C3c4cccc(O)c4C(=O)C[C@@H]3c3ccc(O)c1c32 [HYPOXYLONOL B]

SMILES: O=C1C[C@@H]2[C@H]3CC[C@H](O)c4c(O)ccc(c43)[C@]2(O)c2cccc(O)c21
inhibition zone (IZ) [9]: 10 mm | pIC50 [16]: 5.02 | inhibition zone (IZ) [15]: 10 mm

pIC50 [1]: 5.62 | pIC50 [2]: 7.35
SMILES: COC1C(=O)c2c(O)cccc2C2=C3CCC(=O)c4c(O)ccc(c43)C21 (centres undefined)

pIC50 [1]: 6.40 | pIC50 [2]: 7.22
SMILES: CO[C@@H]1[C@H](O)c2c(O)cccc2C2=C3CCC(=O)c4c(O)ccc(c43)[C@H]21

SMILES: O=C1C[C@H]2C(=C3CCC(=O)c4c(O)ccc2c43)c2cccc(O)c21
inhibition zone (IZ) [4]: 11 mm | LC50 [5]: 100 µg/mL (≈ 314 µM) | MIC [17]: 16.7 µg/mL (≈ 52.5 µM) | inhibition zone (IZ) [6]: 9 mm | pIC50 [11]: 4.98

SMILES: Oc1cccc2c3c(ccc12)-c1ccc(O)c2cccc-3c12
IC50 [18]: 0.025 µg/mL (≈ 0.0879 µM) | IC50 at 48 h [19]: 0.22 µg/mL (≈ 0.774 µM)

MIC [20]: 4.3 µg/mL (≈ 13.1 µM)
SMILES: COc1cccc2c3c(ccc12)-c1ccc(O)c2c(OC)ccc-3c12
